Measured values: patent publication US9040713B2, “Methods of managing blood sugar levels and compositions related thereto” (EMORY UNIVERSITY, priority 2010, dated 2015)

Key:
ob/ob mice [1] = experiment: Intraperitoneal glucose tolerance test in ob/ob mice; format: in vivo, mouse; conditions: 5 mg/kg oral, glucose 2 g/kg i.p. 1 hour later
Protocol: Three-month-old mice were starved for 12 h and then orally administrated with vehicle (0.5% methylcellulose) or DDN (5 mg/kg). Cell lysates were prepared from liver and muscle tissues collected at 1 and 2 h after drug administration and analyzed by immunoprecipitation and immunoblotting. […] Three-month-old mice were starved for 12 h and then orally administrated with vehicle (0.5% methylcellulose) or DDN (5 mg/kg). Cell lysates were prepared from liver and muscle tissues collected at 1 and 2 h after drug administration and analyzed by immunoprecipitation and immunoblotting. (C) Hypoglycemic function of DDN in db/db mice. […] Blood glucose was monitored before and after drug administration at 1-hour intervals (*: P<0.05, **: P<0.01, n=5, Two-way ANOVA vs vehicle). […] Blood glucose was measured at 30-min intervals (*: P<0.05, **:P<0.01, n=5, Two-way ANOVA vs vehicle control).
(A) 4524-E7 provokes IR phosphorylation in various tissues of mice. […] Cell lysates from liver, muscle, and WAT were prepared at 3, 4, and 5 h after drug administration and analyzed by immunoblotting. (B) Basal and insulin-stimulated hepatic glucose production rates were measured by hyperinsulinemic-euglycemic clamp. […] Blood glucose was monitored at different time points as indicated (n=8, *: P<0.05, two-way ANOVA). […] Blood glucose was monitored at different time points as indicated (n=5, *: P<0.05, two-way ANOVA). […]

IR = IR (Mus musculus, UniProt P15208); experiment: IR phosphorylation and downstream signaling in mouse tissues; format: in vivo; conditions: for IR and ERK phosphorylations in liver and muscle: 5 mg/kg oral, 1 and 2 h
Chain of IR (P15208 28-1372): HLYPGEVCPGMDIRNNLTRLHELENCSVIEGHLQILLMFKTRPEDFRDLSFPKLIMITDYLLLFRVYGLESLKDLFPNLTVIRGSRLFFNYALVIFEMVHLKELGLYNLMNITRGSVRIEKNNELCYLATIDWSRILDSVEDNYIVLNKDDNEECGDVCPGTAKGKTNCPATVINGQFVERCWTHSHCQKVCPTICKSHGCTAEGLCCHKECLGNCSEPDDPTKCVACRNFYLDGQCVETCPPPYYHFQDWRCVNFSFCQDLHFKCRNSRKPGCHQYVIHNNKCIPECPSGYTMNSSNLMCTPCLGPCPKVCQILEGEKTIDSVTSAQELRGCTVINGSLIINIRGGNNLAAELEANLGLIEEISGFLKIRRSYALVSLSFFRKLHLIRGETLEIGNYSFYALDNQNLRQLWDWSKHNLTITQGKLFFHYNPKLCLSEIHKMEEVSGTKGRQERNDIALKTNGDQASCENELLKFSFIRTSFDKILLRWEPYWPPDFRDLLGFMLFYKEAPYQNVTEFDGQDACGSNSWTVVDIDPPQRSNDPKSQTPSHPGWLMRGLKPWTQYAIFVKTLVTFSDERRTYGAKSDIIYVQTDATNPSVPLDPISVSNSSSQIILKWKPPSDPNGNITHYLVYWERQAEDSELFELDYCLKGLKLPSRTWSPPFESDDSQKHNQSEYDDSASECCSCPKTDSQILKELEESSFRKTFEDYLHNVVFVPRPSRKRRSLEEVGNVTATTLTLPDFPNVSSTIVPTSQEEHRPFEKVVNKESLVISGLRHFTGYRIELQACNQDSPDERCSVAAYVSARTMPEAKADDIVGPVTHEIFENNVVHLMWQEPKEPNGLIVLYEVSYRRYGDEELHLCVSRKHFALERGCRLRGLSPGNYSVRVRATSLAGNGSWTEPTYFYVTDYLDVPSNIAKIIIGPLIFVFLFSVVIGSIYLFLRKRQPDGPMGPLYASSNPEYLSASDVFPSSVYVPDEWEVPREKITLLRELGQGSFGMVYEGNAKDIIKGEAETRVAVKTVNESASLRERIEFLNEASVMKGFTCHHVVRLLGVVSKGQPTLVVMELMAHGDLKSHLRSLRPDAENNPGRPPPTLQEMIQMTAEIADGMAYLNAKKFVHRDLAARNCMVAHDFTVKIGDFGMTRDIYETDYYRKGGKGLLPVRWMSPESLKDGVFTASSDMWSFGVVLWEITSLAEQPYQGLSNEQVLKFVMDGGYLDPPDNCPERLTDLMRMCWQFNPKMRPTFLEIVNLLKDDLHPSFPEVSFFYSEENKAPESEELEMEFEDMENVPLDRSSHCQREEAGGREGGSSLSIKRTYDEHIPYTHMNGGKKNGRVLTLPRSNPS
Protocol: (A) DDN reduces blood glucose in C57BL/6J mice. […] Blood glucose was monitored before and after dosing at various time points as indicated (*: P<0.05, **: P<0.01; ***: P<0.001, n=10-13, Two-way ANOVA vs vehicle). (B) DDN provokes IR phosphorylation and its downstream signaling in C57BL/6J mice. Three month-old C57BL/6J mice were starved for 12 h and then orally administrated with vehicle (0.5% methylcellulose), DDN (20 mg/kg) or 2NH2-NQ (20 mg/kg). Cell lysates were prepared from liver and muscle tissues collected at 3, 4, and 5 h after drug administration and analyzed by immunoprecipitation and immunoblotting. (C) DDN quickly activates IR phosphorylation and its downstream signaling. Three-month-old C57BL/6J mice were starved for 12 h and then injected with vehicle, 5 mg/kg DDN or 5 mg/kg 2NH2-NQ through vena cava. After 5 min, the liver was collected and analyzed by immunobloting using specific antibodies.
Three-month-old mice were starved for 12 h and then orally administrated with vehicle (0.5% methylcellulose) or DDN (5 mg/kg). Cell lysates were prepared from liver and muscle tissues collected at 1 and 2 h after drug administration and analyzed by immunoprecipitation and immunoblotting. […] Three-month-old mice were starved for 12 h and then orally administrated with vehicle (0.5% methylcellulose) or DDN (5 mg/kg). Cell lysates were prepared from liver and muscle tissues collected at 1 and 2 h after drug administration and analyzed by immunoprecipitation and immunoblotting. (C) Hypoglycemic function of DDN in db/db mice. The animals were starved for 12 h and then orally injected with vehicle (0.5% methylcellulose) or DDN (5 mg/kg). […] Blood glucose was monitored before and after drug administration at 1-hour intervals (*: P<0.05, **: P<0.01, n=5, Two-way ANOVA vs vehicle). (D) DDN improves the glucose tolerance in ob/ob mice. The animals were starved for 12 h and then orally dosed with vehicle (0.5% methylcellulose) or DDN (5 mg/kg). […] A bonus of glucose (2 gm/kg) was injected intraperitoneally 1 hour later. Blood glucose was measured at 30-min intervals (*: P<0.05, **:P<0.01, n=5, Two-way ANOVA vs vehicle control).
(A) 4524-E7 provokes IR phosphorylation in various tissues of mice. Three-month-old C57BL/6J mice were starved for 12 h and then dosed with vehicle (0.5% methylcellulose) or 4524-E7 (20 mg/kg). Cell lysates from liver, muscle, and WAT were prepared at 3, 4, and 5 h after drug administration and analyzed by immunoblotting. (B) Basal and insulin-stimulated hepatic glucose production rates were measured by hyperinsulinemic-euglycemic clamp. […] (C) Hypoglycemic effect of 4524-E7 in C57BL/6J mice. C57BL/6J mice were starved for 12 h and then orally administrated with vehicle (0.5% methylcellulose) or 4524-E7 (5 mg/kg). Blood glucose was monitored at different time points as indicated (n=8, *: P<0.05, two-way ANOVA). (D) Hypoglycemic effect in db/db mice. db/db mice were starved for 12 h and then orally injected with vehicle (0.5% methylcellulose) or 4524-E7 (5 mg/kg). Blood glucose was monitored at different time points as indicated (n=5, *: P<0.05, two-way ANOVA). (E) Glucose tolerance test in ob/ob mice. The mice were starved for 12 hours and then orally administrated with vehicle or 4524-E7 (5 mg/kg). A bonus of glucose (2 gm/kg) was injected intraperitoneally 1 hour later. Blood glucose was then measured at 30 min intervals (n=13, *: P<0.05; **: P<0.01, two-way ANOVA).
After a 12 h fasting, C57BL/6J mice were orally administrated with 20 mg/kg of compound in 0.5% methylcellulose, and sacrificed at 3 h, 4 h and 5 h following compound administration. Fat tissues were dissected quickly and frozen on dry ice. Fat lysates were prepared and analyzed by Western blotting.

ob/ob mice [2] = experiment: Plasma insulin in ob/ob mice; format: in vivo, mouse; conditions: single oral doses
Protocol: After a 12 h fasting, ob/ob mice were bled from the tail vein for a baseline (time −60 minutes) measurement. Then animals were orally administered 5 mg/kg compound in 0.5% methylcellulose. One hour after the drug administration, glucose (2 g/kg) was administrated intraperitoneally. Blood glucose levels were measured 0, 30, 60, 90, 120, and 180 min after administration of glucose. The blood was collected in tubes, kept at 4° C. overnight, and plasma was prepared by centrifugation (2,000 g, 20 min). Plasma insulin was measured by enzyme-linked immunosorbent assay with a rat insulin kit (Crystal Chem. Inc., USA). Insulin was quantified using the insulin standard curve.

GST-EGFRTK = target: T1, GST-EGFRTK (Homo sapiens, UniProt P00533); experiment: In vitro kinase assay (histone H2B phosphorylation); format: biochemical; conditions: different concentrations of 4524-E7
T1 construct: histone phosphorylation by recombinant IGFR or EGFR tyrosine kinase
T1 sequence (P00533 712-979 limits assumed): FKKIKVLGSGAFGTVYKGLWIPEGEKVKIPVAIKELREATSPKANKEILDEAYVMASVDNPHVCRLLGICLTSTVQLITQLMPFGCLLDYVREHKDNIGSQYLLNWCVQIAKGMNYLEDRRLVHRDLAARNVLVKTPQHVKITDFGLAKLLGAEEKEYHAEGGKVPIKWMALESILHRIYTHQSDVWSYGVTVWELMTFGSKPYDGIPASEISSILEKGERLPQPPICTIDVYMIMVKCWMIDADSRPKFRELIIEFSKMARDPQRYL
Protocol: (§1) Parental CHO cells were used as a negative control (Bottom panel). The fluorescence-labeled cells were analyzed on flow cytometry. (B) 4524-E7 protects IRTK from proteolysis. GST-IRTK was subjected to limited trypsin or chymotrypsin digestion in the presence of 4524-E7 (50 μM), ATPyS (5 μM) or both at 37° C. for 5 min. The reaction mixture was resolved by SDS-PAGE, followed by silver staining Cleaved fragments were asterisked. (C) 4524-E7 increases IRTK activity in vitro. Recombinant GST-IRTK, GST-IGFRTK, and GST-EGFRTK were incubated with different concentrations of 4524-E7 or 10 μM 2—NH2-NQ and the kinase activity was examined by monitoring the phosphorylation of histone H2B. (E) In vitro kinase activity of various IRTK/IGF-1R kinase hybrids. The GFP-tagged kinases were expressed in HEK293, immunoprecipitated and incubated with different concentrations of 4524-E7 as indicated. […] Expressions of the kinases were also verified (lower panel).
(§2) To evaluate if 4524-E7 directly binds to the IR kinase domain, a partial proteolysis assay was performed with recombinant IRTK domain using trypsin or chymotrypsin, which was used before to characterize the interaction between IR and its small molecular ligand DAQ B1. Recombinant GST-tagged IRTK with either DMSO, 50 μM 4524-E7 or ATP-γ-S, were incubated and followed by limited trypsin or chymotrypsin digestion. […]

GST-IGFRTK = target: T2, GST-IGFRTK (Homo sapiens, UniProt P08069); experiment: as above; format: biochemical; conditions: different concentrations of 4524-E7
T2 construct: histone phosphorylation by recombinant IGFR or EGFR tyrosine kinase
T2 sequence (P08069 999-1274 limits assumed): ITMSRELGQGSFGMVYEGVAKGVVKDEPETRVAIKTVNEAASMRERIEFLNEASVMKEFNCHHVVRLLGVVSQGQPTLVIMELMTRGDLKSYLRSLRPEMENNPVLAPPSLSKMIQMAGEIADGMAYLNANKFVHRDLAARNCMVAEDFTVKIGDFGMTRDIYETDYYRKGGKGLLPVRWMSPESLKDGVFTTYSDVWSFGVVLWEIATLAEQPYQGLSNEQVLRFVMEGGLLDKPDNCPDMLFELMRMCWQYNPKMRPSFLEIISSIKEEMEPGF
Protocol: as §1, §2

| IR, Akt and ERK activation in liver (IR; C57BL/6J mice, 5 mg/kg through vena cava, after 5 min) | time until demonstrable IR activation in liver and muscle (IR; C57BL/6J mice, 20 mg/kg oral gavage) [h] | IR and ERK phosphorylations in liver and muscle (IR; db/db mice) | time until IR activation in liver and muscle (IR; injected into blood stream through vena cava) [min] | IR and ERK phosphorylations in liver and muscle (IR; ob/ob mice) | IR tyrosine phosphorylation in the liver, muscle and WAT (IR; C57BL/6J mice, 20 mg/kg oral, 3 h after administration) | EGFR tyrosine kinase activity (histone phosphorylation) (GST-EGFRTK) | IGFR tyrosine kinase activity (histone phosphorylation) (GST-IGFRTK) | SMILES | glucose tolerance (ob/ob mice [1]) | IR and IRS-1 tyrosine phosphorylation in liver and muscle (IR; C57BL/6J mice, 20 mg/kg oral) | plasma insulin levels (ob/ob mice [2]) |
| --- | --- | --- | --- | --- | --- | --- | --- | --- | --- | --- | --- |
| quickly activated IR | 3 to 4 | enhanced IR and ERK phosphorylations | 5 | enhanced IR and ERK phosphorylations | – | – | – | CC(=O)Oc1ccc(OC(C)=O)c2c1C(=O)C(Cl)=C(Cl)C2=O [DDN, 5,8-diacetyloxy-2,3-dichloro-1,4-naphthoquinone] | significant improvement in glucose tolerance | confirmed IRS-1 tyrosine phosphorylation in both tissues | no significant effect on plasma insulin levels |
| – | – | – | – | – | all elevated | no effect | no effect | O=C1c2ccccc2C(=O)C2SC(Nc3ccc(Cl)cc3)=NC12 (stereo not drawn) [4524-E7, 2-((4-chlorophenyl)amino)naphtho[2,3-d]thiazole-4,9(3aH,9aH)-dione] | significant improvement of glucose tolerance | – | – |
